According to patent US6541471B1, “Benzenesulphonamide compounds” (Les Laboratoires Servier, priority 2001, dated 2003):

Key:
[1] = tested on: platelet aggregation produced by 5-hydroxytryptamine in human platelet-rich plasma (PRP); assay: Platelet aggregation in man induced by 5-hydroxytryptamine; format: cell-based; settings: 5-hydroxytryptamine 10 μM in the presence of 0.3 μM adenosine diphosphate and 1 μM adrenalin, read-out: IC50, inhibition of platelet aggregation produced by 5-hydroxytryptamine
Description: (§1) Venous blood is obtained from human volunteers who have not taken aspirin for at least 14 days prior to the experiment. The blood is removed over sodium citrate (0.109 M) (1 vol. of citrate over 9 vol. of blood). Platelet-rich plasma (PRP) is obtained by centrifugation (20° C.) at 200 g for 10 minutes. The number of platelets is on average 250000 PL/mm^3. The PRP is stored at room temperature until the test and is used within 2 hours of having been taken. The TXA2 agonist U46619 is used at a concentration of 1 μM and 5-hydroxytryptamine is used at a concentration of 10 μM, the latter in the presence of 0.3 μM adenosine diphosphate and 1 μM adrenalin.

[2] = tested on: platelet aggregation induced by the TXA2 agonist U46619 in human platelet-rich plasma (PRP); assay: Platelet aggregation in man induced by the TXA2 agonist U46619; format: cell-based; settings: U46619 1 μM, read-out: IC50, inhibition of platelet aggregation induced by the TXA2 agonist
Description: as §1

With CN(C)CCCOc1ccccc1CCc1cc(CCNS(=O)(=O)c2ccc(Cl)cc2)cc(CCC(=O)O)c1 [Example 2, 3-[3-(2-{[(4-Chlorophenyl)sulphonyl]amino}ethyl)-5-(2-{2-[3-(dimethylamino)propoxy]phenyl}ethyl)phenyl]propanoic acid] the IC50 [1] was 960 nM and the IC50 [2] was 3300 nM.
